Legend:
[1] = system: Helicobacter pylori strains; assay: Micro-broth dilution antimicrobial activity (MIC, CLSI); format: cell-based; conditions: growth inhibited >90% compared to growth control
Protocol: Micro-broth dilution method was used to determine the antimicrobial activity of boswellic acid composition against Helicobacter pylori strains. The anti-bacterial minimum inhibitory concentration (MIC) study was performed as per the Clinical and Laboratory Standards Institute (CLSI) guidelines.
The test compound (composition comprising boswellic acid) was dissolved using Methanol to a concentration of 12.8 mg/mL (stock). Amoxicillin was dissolved in sterile Phosphate buffer to a concentration of 2 mg/mL.

[2] = system: Dextran Sodium Sulphate (2.5% w/v) induced colitis in BALB/c mice; assay: Dextran Sodium Sulphate induced colitis, gut-protective effect; format: in vivo
Protocol: The compositions comprising boswellic acids are also evaluated for their gut-protective effect using Dextran Sodium Sulphate (2.5% w/v) induced colitis in BALB/c mice. Body weights of mice were recorded during study period, macroscopic examination was carried out for all terminal sacrificed, moribund and found dead animals. Colon and rectum were collected, and histopathology was performed. The composition comprising boswellic acid was also evaluated for gut-protective effect through antimicrobial activity against Helicobacter pylori strains using Micro-broth dilution method. The anti-bacterial minimum inhibitory concentration (MIC) was checked for the composition against Amoxycillin.
The gut-protective effect of composition comprising boswellic acids was evaluated using Dextran Sodium Sulphate (2.5% w/v) induced colitis in BALB/c mice. Dextran Sodium Sulphate (DSS) (36000 to 50000 Daltons molecular weight) was added in autoclaved drinking water and administered to the animals over 10 days for inducing disease condition. Group 2 served as disease control. Groups 3, 4 and 5 were treated with Test Item 1 (G3), Test Item 2 (G4) and Reference (Sulfasalazine—G5), respectively. Concurrent vehicle control group (G1) was also maintained.
Onset of colitis symptoms was monitored by measuring percent body weight, stool consistency (SC) and fecal occult blood (FOB). During the study period (10 days), Disease Activity Index (DAI) was calculated from scores of percent body weight, SC and FOB and were reported. Treatment was continued along with the DSS administration in drinking water up to 10 days by oral administration of Test and Reference Item as follows: • Group 1—Normal control (no DSS & no treatment) • Group 2—Disease control (only DSS, no treatment) • Group 3—DSS+Boswellic acid composition of Example 2: 41 mg/kg • Group 4—DSS+Boswellic acid composition of Example 4: 41 mg/kg • Group 5—DSS+Sulfasalazine: 30 mg/kg
Body weights were recorded daily throughout the study period. Macroscopic examination was carried out for all the terminal sacrificed, moribund and found dead animals. Colon and rectum were collected, and histopathology was performed.

Row | MIC [1] | Compound | percentage of mortality during the study period ([2]; 10 days oral with DSS, compositions 41 mg/kg, sulfasalazine 30 mg/kg) | % body weight change ([2]; Day 10, disease control −20.34%, vehicle control −0.44%) | Mean Disease Activity Index (DAI) ([2]; females, Day 10, disease control 3.9) | Mean Disease Activity Index (DAI) ([2]; males, Day 10, disease control 3.1)
1 | < 0.25 µg/mL | CC1(C)S[C@@H]2[C@H](NC(=O)[C@H](N)c3ccc(O)cc3)C(=O)N2[C@H]1C(=O)O [Amoxicillin] | – | – | – | –
2 | – | O=C(O)c1cc(/N=N/c2ccc(S(=O)(=O)Nc3ccccn3)cc2)ccc1O [Sulfasalazine] | 20% | −17.77% | 3.2 | 3.6

Reference: patent US20220362184A1, “GUT-PROTECTIVE COMPOSITIONS COMPRISING BOSWELLIC ACID” (INVENTIA HEALTHCARE LIMITED, priority 2019, published 2022)
